Consider 18 compounds from ChEMBL document CHEMBL4130560, “Discovery of Indolinone-Based Multikinase Inhibitors as Potential Therapeutics for Idiopathic Pulmonary Fibrosis” (ACS Med Chem Lett, 2017).

A value given as a limit tells only on which side of the number the result lay.

In series [1] the target is Platelet-derived growth factor receptor beta (Homo sapiens, UniProt P09619). Nature of the series: Inhibition of recombinant PDGFRbeta (unknown origin) by off-chip mobility shift assay.
In series [2] the target is Voltage-gated inwardly rectifying potassium channel KCNH2 (Homo sapiens, UniProt Q12809).
Series [3] in a line: Half life in CD1 mouse at 50 mg/kg, iv by UFLC-MS/MS analysis. In kind it is ADME, organism-based. The following applies: in vivo.
Series [4] relates to Mus musculus. Nature of the series: Antifibrotic activity in BLM-induced chronic pulmonary fibrosis C57 mouse model assessed as increase in survival rate administered qd measured up to 28 days. In kind it is functional, organism-based.
The nature of series [5]: AUC in Sprague-Dawley rat at 10 mg/kg, iv by UFLC-MS/MS analysis. In kind it is ADME, organism-based. The following applies: in vivo.
Series [6] is described as follows: Half life in Beagle dog […] at 20 mg/kg, iv by UFLC-MS/MS analysis. In kind it is ADME, organism-based, Canis lupus familiaris. As to conditions: in vivo.
For series [7], the target named is Mast/stem cell growth factor receptor Kit (Homo sapiens, UniProt P10721). Nature of the series: Inhibition of recombinant c-KIT (unknown origin) by off-chip mobility shift assay.
Series [8] is described as follows: Half life in Sprague-Dawley rat at 10 mg/kg, iv by UFLC-MS/MS analysis. In kind it is ADME, organism-based. The following applies: in vivo.
The nature of series [9]: Oral bioavailability in CD1 mouse at 50 mg/kg administered via gavage by UFLC-MS/MS analysis. In kind it is ADME, organism-based. The following applies: in vivo.
The test system of series [10] is Mus musculus. Nature of the series: Toxicity in C57 mouse at 10 to 100 mg/kg, po administered qd measured up to 28 days. In kind it is organism-based. As to conditions: in vivo, 672 h.
The nature of series [11]: AUC in Beagle dog […] at 20 mg/kg, iv by UFLC-MS/MS analysis. In kind it is ADME, organism-based, Canis lupus familiaris. The following applies: in vivo.
Series [12] is described as follows: AUC in CD1 mouse at 50 mg/kg, iv by UFLC-MS/MS analysis. In kind it is ADME, organism-based. As to conditions: in vivo.
The nature of series [13]: Oral bioavailability in Sprague-Dawley rat at 10 mg/kg administered via gavage by UFLC-MS/MS analysis. In kind it is ADME, organism-based. As to conditions: in vivo.
Series [14] in a line: Oral bioavailability in Beagle dog […] at 20 mg/kg administered via gavage by UFLC-MS/MS analysis. In kind it is ADME, organism-based, Canis lupus familiaris. As to conditions: in vivo.
Series [15] deals with Mus musculus. Nature of the series: Toxicity in C57 mouse assessed as lethality at 5 mg/kg, iv after 28 days. In kind it is organism-based. As to conditions: in vivo, 672 h.

Voltage-gated inwardly rectifying potassium channel KCNH2, sequence (Q12809 whole entry): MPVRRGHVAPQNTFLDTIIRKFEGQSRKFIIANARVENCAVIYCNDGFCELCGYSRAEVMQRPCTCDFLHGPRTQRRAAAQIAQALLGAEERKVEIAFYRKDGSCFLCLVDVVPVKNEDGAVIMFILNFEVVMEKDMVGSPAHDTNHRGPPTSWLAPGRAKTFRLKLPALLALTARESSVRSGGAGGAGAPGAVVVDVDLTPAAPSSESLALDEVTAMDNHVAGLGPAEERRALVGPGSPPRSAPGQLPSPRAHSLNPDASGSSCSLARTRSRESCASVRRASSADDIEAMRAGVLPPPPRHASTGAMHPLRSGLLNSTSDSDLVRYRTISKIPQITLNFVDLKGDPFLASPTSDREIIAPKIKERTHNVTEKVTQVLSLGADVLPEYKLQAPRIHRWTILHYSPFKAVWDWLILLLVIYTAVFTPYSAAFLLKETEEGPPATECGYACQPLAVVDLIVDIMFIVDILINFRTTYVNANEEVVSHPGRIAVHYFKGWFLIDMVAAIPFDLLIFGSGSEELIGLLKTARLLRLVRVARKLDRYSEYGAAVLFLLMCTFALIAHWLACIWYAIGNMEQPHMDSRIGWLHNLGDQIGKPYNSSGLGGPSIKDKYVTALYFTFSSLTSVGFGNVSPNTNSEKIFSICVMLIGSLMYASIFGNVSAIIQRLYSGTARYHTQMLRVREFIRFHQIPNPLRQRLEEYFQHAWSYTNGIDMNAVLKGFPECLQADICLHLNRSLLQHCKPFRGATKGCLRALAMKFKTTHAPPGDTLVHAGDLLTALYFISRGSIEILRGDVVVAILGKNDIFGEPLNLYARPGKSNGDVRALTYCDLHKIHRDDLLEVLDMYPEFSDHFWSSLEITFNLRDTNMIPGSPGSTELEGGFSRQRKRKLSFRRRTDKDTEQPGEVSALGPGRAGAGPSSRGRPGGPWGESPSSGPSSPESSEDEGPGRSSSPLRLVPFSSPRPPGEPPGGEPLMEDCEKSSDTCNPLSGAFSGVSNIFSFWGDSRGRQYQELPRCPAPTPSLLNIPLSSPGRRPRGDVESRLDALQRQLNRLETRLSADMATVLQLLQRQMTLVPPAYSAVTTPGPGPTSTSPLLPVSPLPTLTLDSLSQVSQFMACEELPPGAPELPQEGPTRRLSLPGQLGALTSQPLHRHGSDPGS
Platelet-derived growth factor receptor beta, sequence (P09619 whole entry): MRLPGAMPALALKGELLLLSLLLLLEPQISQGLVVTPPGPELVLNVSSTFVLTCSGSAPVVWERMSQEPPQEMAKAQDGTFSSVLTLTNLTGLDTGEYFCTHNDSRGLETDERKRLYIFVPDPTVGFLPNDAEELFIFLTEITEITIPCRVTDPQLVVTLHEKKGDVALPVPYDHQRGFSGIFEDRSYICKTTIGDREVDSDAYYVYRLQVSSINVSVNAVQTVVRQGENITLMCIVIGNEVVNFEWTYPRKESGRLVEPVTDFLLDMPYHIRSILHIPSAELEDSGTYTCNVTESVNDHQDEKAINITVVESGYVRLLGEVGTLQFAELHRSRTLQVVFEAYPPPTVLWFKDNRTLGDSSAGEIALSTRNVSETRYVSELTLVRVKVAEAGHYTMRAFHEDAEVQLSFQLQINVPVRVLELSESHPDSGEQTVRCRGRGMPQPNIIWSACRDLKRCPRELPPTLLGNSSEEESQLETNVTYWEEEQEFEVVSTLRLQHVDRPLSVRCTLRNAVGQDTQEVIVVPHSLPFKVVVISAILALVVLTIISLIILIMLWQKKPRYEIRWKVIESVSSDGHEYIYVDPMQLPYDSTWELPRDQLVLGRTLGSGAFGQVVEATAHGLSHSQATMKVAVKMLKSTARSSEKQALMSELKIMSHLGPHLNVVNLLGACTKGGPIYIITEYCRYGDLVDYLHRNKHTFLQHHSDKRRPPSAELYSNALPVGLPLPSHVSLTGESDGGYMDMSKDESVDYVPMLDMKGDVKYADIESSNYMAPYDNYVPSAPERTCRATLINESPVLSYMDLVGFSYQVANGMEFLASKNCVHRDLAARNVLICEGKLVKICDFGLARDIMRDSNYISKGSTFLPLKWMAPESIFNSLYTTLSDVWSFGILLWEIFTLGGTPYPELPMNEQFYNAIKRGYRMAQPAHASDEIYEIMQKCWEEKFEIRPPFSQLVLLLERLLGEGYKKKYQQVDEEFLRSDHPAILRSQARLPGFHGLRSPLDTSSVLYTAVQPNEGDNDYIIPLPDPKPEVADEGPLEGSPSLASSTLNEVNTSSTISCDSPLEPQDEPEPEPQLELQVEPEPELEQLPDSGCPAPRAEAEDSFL
Mast/stem cell growth factor receptor Kit, sequence (P10721 whole entry): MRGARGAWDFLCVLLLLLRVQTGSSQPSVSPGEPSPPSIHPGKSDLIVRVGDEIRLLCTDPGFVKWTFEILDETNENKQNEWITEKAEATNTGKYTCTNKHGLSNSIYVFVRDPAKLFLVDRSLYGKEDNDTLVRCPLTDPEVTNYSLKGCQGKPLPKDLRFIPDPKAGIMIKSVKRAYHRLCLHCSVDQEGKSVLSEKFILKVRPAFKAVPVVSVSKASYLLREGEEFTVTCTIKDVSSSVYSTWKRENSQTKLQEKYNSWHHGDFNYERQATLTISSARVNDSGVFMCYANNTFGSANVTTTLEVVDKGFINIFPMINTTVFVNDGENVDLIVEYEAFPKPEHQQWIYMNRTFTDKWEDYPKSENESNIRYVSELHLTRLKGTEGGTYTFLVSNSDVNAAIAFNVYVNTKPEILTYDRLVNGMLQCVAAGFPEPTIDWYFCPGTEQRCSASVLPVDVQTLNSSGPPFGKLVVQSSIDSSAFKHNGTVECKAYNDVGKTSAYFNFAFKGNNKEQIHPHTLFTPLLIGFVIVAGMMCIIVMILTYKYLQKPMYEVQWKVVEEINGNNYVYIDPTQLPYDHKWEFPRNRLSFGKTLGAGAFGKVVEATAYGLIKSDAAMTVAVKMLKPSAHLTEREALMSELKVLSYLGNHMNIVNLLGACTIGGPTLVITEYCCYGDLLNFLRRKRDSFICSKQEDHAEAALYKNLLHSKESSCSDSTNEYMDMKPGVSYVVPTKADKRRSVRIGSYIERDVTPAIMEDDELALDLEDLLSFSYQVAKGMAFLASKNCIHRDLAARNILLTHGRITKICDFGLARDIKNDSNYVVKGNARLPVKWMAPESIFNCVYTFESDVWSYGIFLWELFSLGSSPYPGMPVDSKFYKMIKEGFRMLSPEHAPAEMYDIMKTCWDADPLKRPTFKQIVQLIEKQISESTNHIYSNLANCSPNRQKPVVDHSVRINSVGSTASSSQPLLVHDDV

`COC(=O)c1ccc2c(c1)NC(=O)/C2=C(\Nc1ccc(N2C(=O)CC[C@@H]2CN(C)C)cc1)c1ccccc1`: in [1], the IC50 (in general, the point on the concentration scale where inhibition reaches its midpoint) is 14 nM.

`CN1CCN(CC(=O)N(C)c2ccc(N/C(=C3\C(=O)Nc4cc(OC(F)(F)F)ccc43)c3ccccc3)cc2)CC1`: the IC50 in series [1] is 27 nM.

As to `COC(=O)c1ccc2c(c1)NC(=O)/C2=C(\Nc1ccc2c(c1)N(C(=O)Cn1cccn1)CC2)c1ccccc1`, the IC50 in series [1] is 24 nM; in series [2] it was above 30 nM.

As to `CN1CCN(CC(=O)N(C)c2ccc(N/C(=C3\C(=O)Nc4cc(-c5ccco5)ccc43)c3ccccc3)cc2)CC1`, in series [1], the concentration for half-maximal inhibition (IC50) is 12 nM.

In the case of `COC(=O)c1ccc2c(c1)NC(=O)/C2=C(\Nc1ccc2c(c1)N(C(=O)CN1CCOCC1)CC2)c1ccccc1`, the half-life (usually the time needed for the level to fall by half in the phase considered) in series [3] was 4.3 h; in series [6], 3.3 h; in [8] it was 4.8 h. Besides, the Activity result is “Dose-dependent effect” with Mus musculus [4] and “Non-Toxic” in the series with Mus musculus [10]. The results for the AUC in [5], in series [11] and in series [12] were 6410 ng·h/mL, 2960 ng·h/mL and 17000 ng·h/mL, respectively. Besides, the IC50 in [1] is 25 nM; in [7] it was 10 nM; in series [2], above 30 nM. In addition, the results for the bioavailability in series [9], in series [13] and in series [14] were 51%, 68% and 29%, respectively.

With `CN1CCN(CC(=O)N(C)c2ccc(N/C(=C3\C(=O)Nc4cc(-c5ncon5)ccc43)c3ccccc3)cc2)CC1`, in [1], the IC50 turned out to be 5.3 nM. The Activity entry in the series with Mus musculus [15] was “Toxic”.

`COC(=O)c1ccc2c(c1)NC(=O)/C2=C(\Nc1ccc2c(c1)N(C(=O)CN(C)C)CC2)c1ccccc1`: in series [1], the 50% inhibitory concentration (IC50) is 15 nM.

For the compound `COC(=O)c1ccc2c(c1)NC(=O)/C2=C(\Nc1ccc2c(c1)N(C(=O)CN1CCCC1=O)CC2)c1ccccc1`, the IC50 in series [1] is 19 nM; in series [2], above 30 nM.

Consider `COC(=O)c1ccc2c(c1)NC(=O)/C2=C(\Nc1ccc(N2C(=O)CC[C@H]2CN2CCN(C)CC2)cc1)c1ccccc1`, for which the 50% inhibitory concentration (IC50) in series [1] came to 4.3 nM.

With `CN1CCN(CC(=O)N(C)c2ccc(N/C(=C3\C(=O)Nc4cc(-c5ncno5)ccc43)c3ccccc3)cc2)CC1`, the IC50 in series [1] was determined as 4.5 nM.

For `CN1CCN(CC(=O)N(C)c2ccc(N/C(=C3\C(=O)Nc4cc(-c5cnco5)ccc43)c3ccccc3)cc2)CC1`, the IC50 in [1] is 34 nM.

As for `COC(=O)c1ccc2c(c1)NC(=O)/C2=C(\Nc1ccc(N(C)C(=O)CN2CCN(C)CC2)cc1)c1ccccc1` [NINTEDANIB], the midpoint of inhibition in series [2], the IC50, lay at 2.6 nM.

Consider `COC(=O)c1ccc2c(c1)NC(=O)/C2=C(\Nc1ccc2c(c1)N(C(=O)Cn1cncn1)CC2)c1ccccc1`, for which the results for the 50% inhibitory concentration (IC50) in [1] and in series [2] were 15 nM and above 30 nM, respectively.

For `COC(=O)c1ccc2c(c1)NC(=O)/C2=C(\Nc1ccc(N2C(=O)CC[C@@H]2CN2CCN(C)CC2)cc1)c1ccccc1`, the IC50 in series [1] was 3.2 nM.

Regarding `COC(=O)c1ccc2c(c1)NC(=O)/C2=C(\Nc1ccc2c(c1)N(C(=O)CN1CC(C)OC(C)C1)CC2)c1ccccc1` (stereo unspecified), the IC50 in series [1] is 91 nM; in series [2], above 30 nM.

As for `CN1CCN(CC(=O)N(C)c2ccc(N/C(=C3\C(=O)Nc4cc(-c5nnn(C)n5)ccc43)c3ccccc3)cc2)CC1`, in series [1], the IC50 is 13 nM.

With `COC(=O)c1ccc2c(c1)NC(=O)/C2=C(\Nc1ccc(N2CCC(CN3CCN(C)CC3)C2=O)cc1)c1ccccc1` (stereo unspecified), the IC50 in series [1] worked out at 45 nM.

Regarding `CN1CCN(CC(=O)N(C)c2ccc(N/C(=C3\C(=O)Nc4cc(-n5nccn5)ccc43)c3ccccc3)cc2)CC1`, the IC50 in series [1] came to 1.5 nM.
